Measured values as given in patent US11040028B2, “Penicinotam derivative, preparation method and use thereof” (OCEAN UNIVERSITY OF CHINA, priority 2017, dated 2021).

Columns and labels:
Type in all cases: cell-based
[1] = tested on: BHK-21 cells; assay: Anti-fibrosis activity test: inhibition of BHK-21 cell proliferation (CCK-8); conditions: Mesocricetus auratus, BHK-21, 48 h
Summary of the method: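 Each concentration was tested in triplicate on adhered BHK-21 cells for 48 h, with pirfenidone as reference. A 2 h CCK-8 incubation preceded absorbance reading at 450 nm, and IC50 was obtained from percent inhibition versus blank.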

[2] = tested on: human lung fibroblasts HFL1; assay: Anti-fibrosis activity test: inhibition of proliferation of human lung fibroblasts HFL1 (CCK-8); conditions: Homo sapiens, HFL1, 48 h
Summary of the method: (§1)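 A CCK-8 proliferation assay was run: cells at 2×10^4 cells/mL, adherent for 24 h, then incubated 48 h at 37° C with compound dilutions. A450 was recorded 2 h after CCK-8 addition and converted to percent inhibition versus blank for IC50 determination.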

[3] = tested on: human hepatic stellate cells LX-2; assay: Anti-fibrosis activity test: inhibition of proliferation of human hepatic stellate cells LX-2 (CCK-8); conditions: Homo sapiens, 48 h
Summary of the method: as §1

[4] = tested on: human fibrosarcoma cells HT-1080; assay: Anti-fibrosis activity test: inhibition of proliferation of human fibrosarcoma cells HT-1080 (CCK-8); conditions: Homo sapiens, HT-1080, 48 h
Summary of the method: as §1

[5] = tested on: human dermal fibroblasts CCC-ESF-1; assay: Anti-fibrosis activity test: inhibition of proliferation of human dermal fibroblasts CCC-ESF-1 (CCK-8); conditions: Fibroblast
Summary of the method: as §1

[6] = tested on: human embryonic lung fibroblast IMR-90; assay: Anti-fibrosis activity test: inhibition of proliferation of human embryonic lung fibroblast IMR-90 (CCK-8)
Summary of the method: as §1

[7] = tested on: cardiac fibroblast RAT-iCell-C002; assay: Anti-fibrosis activity test: inhibition of proliferation of cardiac fibroblast RAT-iCell-C002 (CCK-8); conditions: Cardiac fibroblast, 48 h
Summary of the method: as §1

[8] = tested on: NF-κB; assay: Immunological activity test: inhibition of NF-κB activity; conditions: initial concentration of 30 μM; a/b isomers given as first/second symbol; read-out: IC50 (μM), inhibitory activity against NF-κB
Summary of the method: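 Compounds were first screened for inhibition of NF-κB activity at 30 μM, with parthenolide as the positive control. IC50 values were then determined for the compounds by further analysis of the assay data.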

[9] = tested on: mouse macrophages (RAW264.7); assay: Lipopolysaccharide-induced NO secretion in macrophages (Griess); conditions: Mus musculus, RAW264.7, 24 h, RAW264.7, LPS 1 μg/ml, a/b isomers given as first/second symbol, read-out: IC50 (μM), inhibition of lipopolysaccharide-induced NO secretion in macrophages
Summary of the method: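 Absorbance at 548 nm after Griess reagent addition to culture supernatant gave NO content; inhibition rate was derived relative to blank control. Cells were mouse RAW264.7 macrophages exposed to compounds and 1 μg/ml LPS for 24 hours.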

[10] = Homo sapiens, CCC-ESF-1 cells, 48 h, CCK-8
[11] = Homo sapiens, IMR-90 cells, 48 h, CCK-8
[12] = CCK-8, 48 hours after administration
[13] = human lung fibroblasts HFL1, CCK-8, 48 hours
[14] = human hepatic stellate cells LX-2, CCK-8, 48 hours
[15] = human fibrosarcoma cells HT-1080, CCK-8, 48 hours
[16] = human dermal fibroblasts CCC-ESF-1, CCK-8, 48 hours
[17] = human embryonic lung fibroblast IMR-90, CCK-8, 48 hours
[18] = cardiac fibroblast RAT-iCell-C002, CCK-8, 48 hours

SMILES	IC50 ([1]; 48 h, CCK-8) [mM]	IC50 ([2]; HFL1 cells, 48 h, CCK-8) [mM]	IC50 ([3]; LX-2, 48 h, LX-2 cells, CCK-8) [mM]	IC50 ([4]; HT-1080 cells, 48 h, CCK-8) [mM]	IC50 [5, 10] [mM]	IC50 [6, 11] [mM]	IC50 ([7]; RAT-iCell-C002 cells, CCK-8) [mM]	IC50 [8] [µM]	IC50 [9] [µM]	IC50 [1, 12] [mM]	IC50 [2, 13] [mM]	IC50 [3, 14] [mM]	IC50 [4, 15] [mM]	IC50 [5, 16] [mM]	IC50 [6, 17] [mM]	IC50 [7, 18] [mM]
Cc1ccc2n1C(=O)c1[nH]c3ccccc3c(=O)c1-2 [Compound 799a, 3-Methyl-5H-pyrrolizino[2,1-b]quinoline-5,11(6H)-dione]	0.05 to 5	0.05 to 5	0.05 to 5	< 0.05	0.05 to 5	0.05 to 5	0.05 to 5	1 to 10	1 to 10							
Cc1cccc(Cn2c3c(c(=O)c4ccccc42)C(=O)n2cccc2-3)c1 [Compound 609a, 4-(3-Methylbenzyl)-9H-pyrrolizino[1,2-b]quinoline-9,10(4H)-dione]								1 to 10	0.1 to 1	0.05 to 5	0.05 to 5	0.05 to 5	0.05 to 5	0.05 to 5	0.05 to 5	0.05 to 5
COc1cc(COc2c3c(nc4ccccc24)-c2cccn2C3=O)cc(OC)c1 [Compound 580b, 9-((3,5-dimethoxybenzyl)oxy)-10H-pyrrolizino[1,2-b]quinolin-10-one]								1 to 10	1 to 10	0.05 to 5	0.05 to 5	0.05 to 5	0.05 to 5	0.05 to 5	0.05 to 5	0.05 to 5
CCOCCCn1c2c(c(=O)c3ccccc31)C(=O)n1cccc1-2 [Compound 672a, 4-(3-Ethoxypropyl)-9H-pyrrolizino[1,2-b]quinoline-9,10(4H)-dione]	0.05 to 5	0.05 to 5	0.05 to 5	0.05 to 5	0.05 to 5	0.05 to 5	0.05 to 5	1 to 10	1 to 10							
Cc1cccc2c(=O)c3c([nH]c12)-c1cccn1C3=O [Compound 732a, 5-Methyl-9H-pyrrolizino[1,2-b]quinoline-9,10(4H)-dione]	< 0.05	0.05 to 5	0.05 to 5	0.05 to 5	< 0.05	0.05 to 5	0.05 to 5	0.1 to 1	1 to 10							
O=C1c2c(nc3ccccc3c2OCc2ccc(Cl)cc2)-c2cccn21 [Compound 589b, 9-((4-chlorobenzyl)oxy)-10H-pyrrolizino[1,2-b]quinolin-10-one]								1 to 10	1 to 10	0.05 to 5	0.05 to 5	< 0.05	< 0.05	0.05 to 5	0.05 to 5	0.05 to 5
O=C1c2c([nH]c3ccc(OC(F)(F)F)cc3c2=O)-c2cccn21 [Compound 306a, 7-(Trifluoromethoxy)-9H-pyrrolizino[1,2-b]quinoline-9,10(4H)-dione]								1 to 10	1 to 10	0.05 to 5	0.05 to 5	0.05 to 5	0.05 to 5	0.05 to 5	0.05 to 5	0.05 to 5
O=C1c2c(nc3cccc(C(F)(F)F)c3c2O)-c2cccn21 [Compound 479b, 9-hydroxy-8-(trifluoromethyl)-10H-pyrrolizino[1,2-b]quinolin-10-one]								1 to 10	1 to 10	0.05 to 5	0.05 to 5	0.05 to 5	0.05 to 5	0.05 to 5	0.05 to 5	0.05 to 5
COc1cccc2nc3c(c(O)c12)C(=O)n1cccc1-3 [Compound 473b, 9-hydroxy-8-methoxy-10H-pyrrolizino[1,2-b]quinolin-10-one]								1 to 10	1 to 10	0.05 to 5	0.05 to 5	0.05 to 5	0.05 to 5	0.05 to 5	0.05 to 5	0.05 to 5
O=C1c2c(nc3ccc(Br)cc3c2O)-c2cccn21 [Compound 246b, 7-bromo-9-hydroxy-10H-pyrrolizino[1,2-b]quinolin-10-one]								1 to 10	1 to 10	0.05 to 5	0.05 to 5	0.05 to 5	0.05 to 5	0.05 to 5	0.05 to 5	0.05 to 5
